Melting point data for 90 compounds are collected here from a melting point compilation (Tetko et al.; mined from patent text by program, amines drawn as free bases though some values may be those of a salt).

For orientation: melting point means the temperature, or range, at which the solid turns liquid.

In the case of `O=C(c1ccccc1)C1CCCS1(=O)=O` (stereo not given), the melting point was 90 to 94 °C.
The same measure for `O=C(NO)[C@@H](CC(=O)N1CCOCC1)NS(=O)(=O)c1ccc(Oc2ccccc2)cc1`: 161 to 163 °C; for `O=C1c2ccc(Br)cc2C(=O)N1c1ccc2c(c1)C=C2`: 167 to 168 °C; for `COc1ccc(-c2cccc(Cl)c2)cc1Cn1cncn1`: 78.2 to 78.4 °C.
As to `c1cc(Cn2ncc3c(N4CCNCC4)ncnc32)ccn1`, the melting point was determined as 121 °C.
Compound `CCCn1cncc1-c1ccc(O)cc1` had a melting point of 160 °C.
Turning to `Nc1cc(C(=O)O)ccc1-c1nc(-c2ccc(C(F)(F)F)cc2)no1`, the melting point is over 300 °C.
The same measure for `Cc1c(C2=NCCS2)[nH]c2c(NS(=O)(=O)c3cccs3)cccc12`: 163 to 164 °C.
The same measure for `CCOC(=O)C(=CNc1cnsn1)C(=O)c1cc(F)c(F)c(F)c1F`: 81 to 83 °C.
`CN(C)CCON=C1c2ccccc2C2CC2c2ccccc21` (stereo not given) had a melting point of 69 to 70 °C.
On to `CNC(=O)N(O)C(C)c1ccc(F)c(Br)c1` (stereo not given), for which the melting point was in the range of 137 to 138 °C.
As to `Cc1ccc(COc2ncc(F)c(NC(=O)c3ccccc3)n2)cc1`, the melting point fell in the range of 93 to 95 °C.
The same measure for `CC(C)(O)C#Cc1ccc(F)cc1`: 124 °C; for `CCOC(=O)C(C)(C#N)c1cccc2c(-c3ccc(Cl)cc3)nccc12` (stereo not given): 92 to 93.5 °C; for `O=C(Nc1cccc(Cl)c1)C1C(=O)Sc2ccc(Cl)cc21` (stereo not given): 160 to 163 °C.
The compound `O=C1N(Cc2ccc(OC(F)(F)F)cc2)c2ccccc2C12COc1cc3c(cc12)OCO3` (stereo not given) yielded a melting point of 99 to 101 °C.
The same measure for `CCCc1cc(Br)c2oc(Cc3ccc(OC)cc3)c(C)c2c1O`: 110 to 112 °C; for `CCCCCCCCCCCC[C@]1(O)C(=O)O[C@H](C(=O)OC)[C@@]1(O)C(=O)OC` (racemic): 74 to 76 °C.
The same measure for `CCOC(=O)C1=C(C)NN=C(CC)C1c1ccccc1` (stereo not given): 109 °C; for `CN1CCC23c4c5ccc(O)c4OC2C(=O)CCC3(F)C1C5` (stereo not given): 215 to 217 °C.
The same measure for `O=C(c1ccc(Cl)cc1)c1cc(Cl)cc2c1OCC2C(=O)O` (stereo not given): 161 to 163 °C; for `COC(=O)c1ccc(OCC2CC(=O)N(c3ccc(OCCn4ccnc4)cc3)C2)cc1` (stereo not given): 135 to 138 °C; for `COc1ccccc1NC(=O)CN1C(=O)c2ccccc2C1=O`: 211 °C.
In the case of `O=C(NCCCCCCOC(=O)N1CCCCC1)OC1CCN(C(=O)Oc2ccc(Oc3ccccc3)cc2)CC1`, the melting point was 92 to 93 °C.
As to `COCc1c(S(C)(=O)=O)ccc(C(=O)O)c1Cl`, the melting point lay within 137 to 141 °C.
The same measure for `CCN(C)C(=O)Nc1cc(C(C)(C)C)on1`: 88.5 to 89.5 °C; for `NS(=O)(=O)c1cc2cnc(CO)cc2o1`: 222 to 223 °C; for `CC(C)(C)OC(=O)N1CCn2c(c(C(N)=O)c(C#N)c2C2CC2)C1`: 221 to 222 °C.
Consider `Nc1nc2ccccc2c2c1ncn2CCCCNC(=O)Oc1ccc2ccccc2c1`, for which the melting point was 154 to 155 °C.
The same measure for `CC(=O)O[C@@H]1NC(=O)[C@H]1NC(=O)OCc1ccccc1`: 110 to 113 °C; for `CC(C)(SCc1ccccn1)C(NS(=O)(=O)c1ccc(Oc2ccc(-c3ccoc3)cc2)cc1)C(=O)O` (stereo not given): 185 to 189 °C.
Regarding `CCOC(=O)CCCCCOc1ccc(C(=O)Nc2ccccc2S(=O)(=O)c2ccccc2-c2nnn[nH]2)cc1`, the melting point was in the range of 180 to 181 °C.
`CCCCCCn1c(=O)[nH]c2ncccc2c1=O` registered a melting point of 166 to 168 °C.
`CN(C)c1ccc(C=O)c(O)c1` displayed a melting point of 77 to 78 °C.
The same measure for `CC(C)(C)OC(=O)NS(N)(=O)=O`: 130 to 131 °C; for `Cn1nc(-c2cccs2)n(C)c1=O`: 108 to 110 °C.
The same measure for `Cc1ccc(C(=O)C(=O)c2ccc(Br)cc2)cc1`: 132 to 135 °C; for `COc1ccc(CCC(=O)c2c(OC)cc(OC)c(CCC(C)C)c2OCC(=O)O)cc1O`: 129 to 130 °C; for `O=C(O)c1cc2cc(Cl)cc(Cl)c2nc1N[C@@H](Cc1ccccc1)C(=O)O`: 218 to 223 °C.
The same measure for `CSc1nc2ccc(Cl)cc2cc1C=O`: 154 to 155 °C.
Turning to `CCOP(=O)(CCN1CCNc2c1c(=O)c2=O)OCC`, the melting point was in the range of 115 to 116 °C.
`COc1ccc(CNn2c(=O)ccc3ccc(Cl)nc32)cc1Cl` gave a melting point of 151 to 154 °C.
Consider `COc1cc(Cc2cnc(N)nc2N)cc(OC)c1`, for which the melting point was in the range of 164 to 168 °C.
Turning to `CN(C)S(=O)(=O)Nc1ccc(C(=O)Nc2ccccc2)cc1`, the melting point fell in the range of 213 to 215 °C.
The same measure for `Nc1nc(-c2ccc(F)c3ccccc23)co1`: 171 to 174 °C.
As for `COc1ccc(Nc2ncc(Br)c(Nc3ccc(OC)c(OC)c3OC)n2)c(OC)c1OC`, the melting point was in the range of 186 to 191 °C.
For the compound `CCOC(=O)C=Cc1cc2cc(OC)ccc2nc1Cl`, the melting point fell in the range of 113 to 114 °C.
The same measure for `O=C1OC(=O)c2c3cc(Cl)ccc3cc3cccc1c23`: 325 to 327 °C; for `O=C(O[C@H]1[C@H](OC(=O)c2ccccc2)[C@@H](CO)O[C@@H]1CO)c1ccccc1`: 120 to 122 °C; for `COc1ccc(C(=O)N2CCc3cc(S(=O)(=O)N4CC(c5ccccc5)NC4=O)ccc32)cc1OC` (stereo not given): 178 to 179 °C.
The same measure for `O=C(Nc1ccc(-n2nc(C(F)(F)F)cc2C(F)(F)F)cc1)c1ccc(CO)cc1`: 213 to 214 °C.
In turn, `COc1ccc(C(=O)CCC(=O)O)cc1Cl` yielded a melting point of 187 to 189 °C.
`NCCCCn1cnc(-c2ccccc2)c1` registered a melting point of 130 to 132 °C.
In turn, `CCN(CC1CC1)c1c([N+](=O)[O-])cc(C(F)(F)F)c(N)c1[N+](=O)[O-]` returned a melting point of 99 to 100 °C.
The same measure for `Cc1nc2ccc(-c3ccc(OCC4(N)COC4)cc3)nn2c1-c1cnc(N)c(C(F)(F)F)c1`: 198 to 200 °C.
The same measure for `CCN1C(=O)C(C)(C)C(=O)N(C)c2cc(CN(CCc3ccc(C)nc3C)Cc3scnc3C)ccc21`: 136 to 137 °C; for `CC[C@@H](c1ccccc1)N(Cc1ccc(CN)cc1)S(=O)(=O)c1ccc(Cl)cc1`: 108 to 110 °C; for `CN1CCN(c2ncc3c(=O)c(C(=O)O)cn(C)c3n2)CC1`: 280 °C.
The same measure for `C#CCNC(=NCCSCc1nccs1)NC#N`: 138 to 140 °C; for `O=C(c1ccn2c1CSC2c1cccnc1)c1cn(C(=O)NCCc2c[nH]cn2)c2cc(-c3ccc(F)cc3)ccc12` (stereo not given): 156 to 158 °C; for `CNC(=O)c1ccc(N2CCNCC2)cc1`: 154 to 156 °C.
The compound `CCCCCCc1cc2c(s1)-n1c(C)nnc1CN=C2c1ccc(OC)cc1` yielded a melting point of 97 to 99 °C.
The same measure for `O=C(O)/C(=N\OCF)c1nsc(NC(c2ccccc2)(c2ccccc2)c2ccccc2)n1`: 144 to 146 °C.
For the compound `COc1ccc(C2CCN(c3c(C)c(C)c4c(c3C)C(O)(c3ccc(F)cc3)C(C)(C)O4)CC2)cc1OC` (stereo not given), the melting point lay within 150 to 152 °C.
The same measure for `COc1cccc(OC)c1-c1ccc(CC(NC(=O)Nc2ccccc2S(=O)(=O)c2ccccc2)C(=O)O)cc1` (stereo not given): 119 °C.
The same measure for `CCCn1ncnc1COc1nn2c(-c3ccc(F)cc3)nncc2c1-c1ccccc1F`: 148 °C.
The same measure for `CN(CC[C@H]1CC[C@H](C(=O)O)CC1)c1nccc(C(F)(F)F)n1`: 110 to 112 °C; for `Nc1cc(C(=O)OC2CCCC2)c(Cl)cc1F`: 61 to 62 °C; for `Cc1ccc(-c2c(C#N)c(CC(C)C)nc3ccc(OCc4ccccc4)cc23)cc1`: 137 to 138 °C.
Regarding `CCC(NC(=O)C1CC1)c1ccc(Cl)c2nc3n(c12)CCCN3c1ccc(Cl)cc1Cl` (stereo not given), the melting point lay within 251 to 253 °C.
`N#Cc1ccc2c(c1)COC2(c1ccc(F)cc1)c1ccc(F)cc1` displayed a melting point of 105 to 106 °C.
The compound `N#Cc1cc(Br)c(OC(=O)OCCl)c(Br)c1` registered a melting point of 83 to 85 °C.
In turn, `COC(=O)c1ccc(C(=O)N2CCN(c3ncccc3[N+](=O)[O-])CC2)cc1` came in with a melting point of 149 to 152 °C.
The compound `CCCN(Cc1cccc(C(=N)N)c1)C(=O)Nc1ccc(-c2ccccc2S(=O)(=O)NC(C)(C)C)cc1` returned a melting point of 201 to 202 °C.
The same measure for `N#Cc1cc(NC(=O)c2cc3ccccc3o2)ccc1N1CCC(CCO)CC1`: 214 °C.
The same measure for `Clc1ccc2c(c1)C(Cl)c1ccccc1CO2` (stereo not given): 125 to 127 °C; for `CCCCc1cn(Cc2ccc(C(=O)O)cc2)c2ccccc2c1=O`: 224 °C.
`CC(C)(NC(=O)CCS)C(=O)O` returned a melting point of 169 to 170 °C.
The same measure for `COC1=C(OC)CC(C=C(C#N)C(N)=O)C=C1` (stereo not given): 170 to 171 °C; for `CC(C)N1C(=O)CCCc2cc(Nc3ncc(Cl)c(NC4C5C=CC(C5)C4C(N)=O)n3)ccc21` (stereo not given): 260 °C; for `CCOC(=O)c1cn(CCN(CC)CC)c2oc(CN3CCOCC3)cc2c1=O`: 131 to 134 °C.
The same measure for `O=C(O)COc1ccc(C(=O)Nc2cccc(Cl)c2Cl)cc1`: 153 to 157 °C; for `COc1ccc(F)cc1C(C)(C)CC(O)(Cc1ccc(C(=O)O)cc1)C(F)(F)F` (stereo not given): 174 to 177 °C; for `CCOC(=O)c1ncn2c1c(C)nc1ccccc12`: 192 to 193 °C.
`CCCCCCCCCCCCCCCCOC(=O)C(C)Nc1cccc(O)c1` (stereo not given) had a melting point of 35 to 40 °C.
The same measure for `CCCCCN(CCC12CC3CC(CC(C3)C1)C2)C(=O)NCCc1cccnc1`: 112 to 114 °C.
Take `O=C(c1cc(-c2ccccc2)ccn1)N(O)Cc1ccccc1`: the melting point was in the range of 160 to 165 °C.
The same measure for `Cc1ccc(-c2nc3cc([N+](=O)[O-])ccc3o2)o1`: 182 to 184 °C; for `COc1ccc(C2(C#Cc3ccc(N4CN=C(C)O4)s3)CCC(=O)CC2)cc1OC1CCCC1`: 94 to 95 °C.
For the compound `OCCCC(c1ccccc1)C(O)(c1ccccc1)c1ccccc1` (stereo not given), the melting point was in the range of 120 to 122 °C.
